Laboratory results taken from US20260262643A1, “HERBICIDAL BENZOXAZINES” (FMC CORPORATION, priority 2022, published 2026).

Assays:
[1] = tested on: pigweed, palmer; experiment: Test C postemergence; format: in vivo, Amaranthus palmeri; conditions: 10 days, 0 to 100 scale (0 no effect, 100 complete control)
Procedure, shortened: (§1)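 Visual injury score, 0–100 (100 = complete control), taken 10 days after treatment relative to untreated controls. Pre: directed spray onto soil over sown seeds. Post: foliar spray at one- to two-leaf stage, 2–10 cm. Solvent/surfactant formulation; loam–sand soil; greenhouse.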

[2] = tested on: oat, wild; experiment: Test C preemergence; format: in vivo, Avena fatua; conditions: for Oat, Wild plant response rating: preemergence, 0 to 100 scale (0 no effect, 100 complete control)
Procedure, shortened: as §1

[3] = tested on: barnyardgrass; experiment: Test C preemergence; format: in vivo, Echinochloa crusgalli; conditions: for Barnyardgrass plant response rating: preemergence, 0 to 100 scale (0 no effect, 100 complete control)
Procedure, shortened: as §1

[4] = tested on: pigweed, palmer; experiment: Test C preemergence; format: in vivo, Amaranthus palmeri; conditions: preemergence, 0 to 100 scale (0 no effect, 100 complete control)
Procedure, shortened: as §1

[5] = tested on: barnyardgrass; experiment: Test C postemergence; format: in vivo, Echinochloa crusgalli; conditions: 10 days, 0 to 100 scale (0 no effect, 100 complete control)
Procedure, shortened: as §1

[6] = tested on: barnyardgrass; experiment: Test D flooded paddy test; format: in vivo, Echinochloa crus-galli; conditions: 250 g ai/ha, applied to paddy water, visual rating after 13 to 14 days, scale 0 to 100 (0 no effect, 100 complete control)
Procedure, shortened: (§2)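 Plants grown to the 2-leaf stage; pots flooded to 3 cm above soil at treatment and held at that depth throughout. Test compounds applied directly to the paddy water. After 13 to 14 days in a greenhouse, response was rated visually versus controls on a 0 (no effect) to 100 (complete control) scale.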

[7] = tested on: green foxtail; experiment: Test C preemergence; format: in vivo, Setaria viridis; conditions: for Foxtail, Green plant response rating: preemergence, 0 to 100 scale (0 no effect, 100 complete control)
Procedure, shortened: as §1

[8] = tested on: galium; experiment: Test C postemergence; format: in vivo, Galium aparine; conditions: 10 days, 0 to 100 scale (0 no effect, 100 complete control)
Procedure, shortened: as §1

[9] = tested on: soybean; experiment: Test C postemergence; format: in vivo, Glycine max; conditions: 10 days, 0 to 100 scale (0 no effect, 100 complete control)
Procedure, shortened: as §1

[10] = tested on: ryegrass, Italian; experiment: Test C preemergence; format: in vivo, Lolium multiflorum; conditions: for Ryegrass, Italian plant response rating: preemergence, 0 to 100 scale (0 no effect, 100 complete control)
Procedure, shortened: as §1

[11] = tested on: ryegrass, Italian; experiment: Test C postemergence; format: in vivo, Lolium multiflorum; conditions: 10 days, 0 to 100 scale (0 no effect, 100 complete control)
Procedure, shortened: as §1

[12] = tested on: corn; experiment: Test C postemergence; format: in vivo, Zea mays; conditions: 10 days, 0 to 100 scale (0 no effect, 100 complete control)
Procedure, shortened: as §1

[13] = tested on: kochia; experiment: Test C postemergence; format: in vivo, Bassia scoparia; conditions: 10 days, 0 to 100 scale (0 no effect, 100 complete control)
Procedure, shortened: as §1

[14] = tested on: wheat; experiment: Test C preemergence; format: in vivo, Triticum aestivum; conditions: for Wheat plant response rating: preemergence, 0 to 100 scale (0 no effect, 100 complete control)
Procedure, shortened: as §1

[15] = tested on: wheat; experiment: Test C postemergence; format: in vivo, Triticum aestivum; conditions: 10 days, 0 to 100 scale (0 no effect, 100 complete control)
Procedure, shortened: as §1

[16] = tested on: green foxtail; experiment: Test C postemergence; format: in vivo, Setaria viridis; conditions: 10 days, 0 to 100 scale (0 no effect, 100 complete control)
Procedure, shortened: as §1

[17] = tested on: sedge, umbrella; experiment: Test D flooded paddy test; format: in vivo, Cyperus difformis; conditions: 250 g ai/ha, applied to paddy water, visual rating after 13 to 14 days, scale 0 to 100 (0 no effect, 100 complete control)
Procedure, shortened: as §2

[18] = tested on: ragweed; experiment: Test C preemergence; format: in vivo, Ambrosia artemisiifolia; conditions: for Ragweed plant response rating: preemergence, 0 to 100 scale (0 no effect, 100 complete control)
Procedure, shortened: as §1

[19] = tested on: blackgrass; experiment: Test C preemergence; format: in vivo, Alopecurus myosuroides; conditions: for Blackgrass plant response rating: preemergence, 0 to 100 scale (0 no effect, 100 complete control)
Procedure, shortened: as §1

[20] = tested on: horseweed; experiment: Test C postemergence; format: in vivo, Erigeron canadensis; conditions: 10 days, 0 to 100 scale (0 no effect, 100 complete control)
Procedure, shortened: as §1

[21] = tested on: ducksalad; experiment: Test D flooded paddy test; format: in vivo, Heteranthera limosa; conditions: 250 g ai/ha, applied to paddy water, visual rating after 13 to 14 days, scale 0 to 100 (0 no effect, 100 complete control)
Procedure, shortened: as §2

[22] = tested on: rice; experiment: Test D flooded paddy test; format: in vivo, Oryza sativa; conditions: 250 g ai/ha, applied to paddy water, visual rating after 13 to 14 days, scale 0 to 100 (0 no effect, 100 complete control)
Procedure, shortened: as §2

[23] = tested on: kochia; experiment: Test C preemergence; format: in vivo, Bassia scoparia; conditions: for Kochia plant response rating: preemergence, 0 to 100 scale (0 no effect, 100 complete control)
Procedure, shortened: as §1

[24] = tested on: oat, wild; experiment: Test C postemergence; format: in vivo, Avena fatua; conditions: 10 days, 0 to 100 scale (0 no effect, 100 complete control)
Procedure, shortened: as §1

[25] = tested on: blackgrass; experiment: Test C postemergence; format: in vivo, Alopecurus myosuroides; conditions: 10 days, 0 to 100 scale (0 no effect, 100 complete control)
Procedure, shortened: as §1

[26] = tested on: ragweed; experiment: Test C postemergence; format: in vivo, Ambrosia artemisiifolia; conditions: 10 days, 0 to 100 scale (0 no effect, 100 complete control)
Procedure, shortened: as §1

[27] = tested on: soybean; experiment: Test C preemergence; format: in vivo, Glycine max; conditions: for Soybean plant response rating: preemergence, 0 to 100 scale (0 no effect, 100 complete control)
Procedure, shortened: as §1

[28] = tested on: corn; experiment: Test C preemergence; format: in vivo, Zea mays; conditions: for Corn plant response rating: preemergence, 0 to 100 scale (0 no effect, 100 complete control)
Procedure, shortened: as §1

[29] = Preemergence, 125 g ai/ha, 0 to 100 scale, 0 no effect, 100 complete control

Cc1cccc2c1O[C@@H](C)CN2C(=O)c1cccc(-n2cnc(N)n2)c1 [Compound 308]
Plant response rating, Pigweed, Palmer ([1]; 500 g ai/ha, postemergence): 50 | Plant response rating, Pigweed, Palmer ([1]; Postemergence, 125 g ai/ha): 10 | Oat, Wild plant response rating ([2]; 500 g ai/ha): 70 | Oat, Wild plant response rating ([2]; Test C, 125 g ai/ha): 0 | Barnyardgrass plant response rating ([3]; 500 g ai/ha): 50 | Barnyardgrass plant response rating ([3]; Test C, 125 g ai/ha): 0 | Pigweed, Palmer plant response rating ([4]; 500 g ai/ha): 80 | Pigweed, Palmer plant response rating ([4]; Test C, 125 g ai/ha): 20 | Plant response rating, Barnyardgrass ([5]; 500 g ai/ha, postemergence): 30 | Plant response rating, Barnyardgrass ([5]; Postemergence, 125 g ai/ha): 10 | Plant response rating, Barnyardgrass (Flood) [6]: 0 | Foxtail, Green plant response rating ([7]; 500 g ai/ha): 90 | Foxtail, Green plant response rating ([7]; Test C, 125 g ai/ha): 30 | Plant response rating, Galium ([8]; 500 g ai/ha, postemergence): 80 | Plant response rating, Galium ([8]; Postemergence, 125 g ai/ha): 70 | Plant response rating, Soybean ([9]; 500 g ai/ha, postemergence): 100 | Plant response rating, Soybean ([9]; Postemergence, 125 g ai/ha): 90 | Ryegrass, Italian plant response rating ([10]; 500 g ai/ha): 70 | Ryegrass, Italian plant response rating ([10]; Test C, 125 g ai/ha): 30 | Plant response rating, Ryegrass, Italian ([11]; 500 g ai/ha, postemergence): 20 | Plant response rating, Ryegrass, Italian ([11]; Postemergence, 125 g ai/ha): 0 | Plant response rating, Corn ([12]; 500 g ai/ha, postemergence): 40 | Plant response rating, Corn ([12]; Postemergence, 125 g ai/ha): 10 | Plant response rating, Kochia ([13]; 500 g ai/ha, postemergence): 20 | Plant response rating, Kochia ([13]; Postemergence, 125 g ai/ha): 20 | Wheat plant response rating ([14]; 500 g ai/ha): 30 | Wheat plant response rating ([14]; Test C, 125 g ai/ha): 0 | Plant response rating, Wheat ([15]; 500 g ai/ha, postemergence): 20 | Plant response rating, Wheat ([15]; Postemergence, 125 g ai/ha): 10 | Plant response rating, Foxtail, Green ([16]; 500 g ai/ha, postemergence): 50 | Plant response rating, Foxtail, Green ([16]; Postemergence, 125 g ai/ha): 20 | Plant response rating, Sedge, Umbrella (Flood) [17]: 0 | Ragweed plant response rating ([18]; 500 g ai/ha): 20 | Ragweed plant response rating ([18]; Test C, 125 g ai/ha): 30 | Blackgrass plant response rating ([19]; 500 g ai/ha): 30 | Blackgrass plant response rating ([19]; Test C, 125 g ai/ha): 0 | Plant response rating, Horseweed ([20]; 500 g ai/ha, postemergence): 0 | Plant response rating, Horseweed ([20]; Postemergence, 125 g ai/ha): 20 | Plant response rating, Ducksalad (Flood) [21]: 0 | Plant response rating, Rice (Flood) [22]: 0 | Kochia plant response rating ([23]; 500 g ai/ha): 20 | Kochia plant response rating ([23]; Test C, 125 g ai/ha): 0 | Plant response rating, Oat, Wild ([24]; 500 g ai/ha, postemergence): 0 | Plant response rating, Oat, Wild ([24]; Postemergence, 125 g ai/ha): 0 | Plant response rating, Blackgrass ([25]; 500 g ai/ha, postemergence): 60 | Plant response rating, Blackgrass ([25]; Postemergence, 125 g ai/ha): 10 | Plant response rating, Ragweed ([26]; 500 g ai/ha, postemergence): 30 | Plant response rating, Ragweed ([26]; Postemergence, 125 g ai/ha): 0 | Soybean plant response rating ([27]; 500 g ai/ha): 0 | Soybean plant response rating ([27]; Test C, 125 g ai/ha): 0 | Corn plant response rating ([28]; 500 g ai/ha): 0 | Corn plant response rating ([28]; Test C, 125 g ai/ha): 0

Cc1nnc(-c2cccc(C(=O)N3C[C@H](C)Oc4c(Cl)cccc43)c2)o1 [Compound 355]
Plant response rating, Pigweed, Palmer ([1]; 500 g ai/ha, postemergence): 10 | Oat, Wild plant response rating ([2]; 500 g ai/ha): 0 | Plant response rating, Oat, Wild [2, 29]: 0 | Barnyardgrass plant response rating ([3]; 500 g ai/ha): 0 | Plant response rating, Barnyardgrass [3, 29]: 0 | Pigweed, Palmer plant response rating ([4]; 500 g ai/ha): 0 | Plant response rating, Barnyardgrass ([5]; 500 g ai/ha, postemergence): 10 | Plant response rating, Barnyardgrass ([5]; Postemergence, 125 g ai/ha): 10 | Plant response rating, Barnyardgrass (Flood) [6]: 0 | Foxtail, Green plant response rating ([7]; 500 g ai/ha): 20 | Plant response rating, Foxtail, Green [7, 29]: 20 | Plant response rating, Galium ([8]; 500 g ai/ha, postemergence): 10 | Plant response rating, Soybean ([9]; 500 g ai/ha, postemergence): 50 | Ryegrass, Italian plant response rating ([10]; 500 g ai/ha): 20 | Plant response rating, Ryegrass, Italian [10, 29]: 20 | Plant response rating, Ryegrass, Italian ([11]; 500 g ai/ha, postemergence): 0 | Plant response rating, Ryegrass, Italian ([11]; Postemergence, 125 g ai/ha): 0 | Plant response rating, Corn ([12]; 500 g ai/ha, postemergence): 10 | Plant response rating, Corn ([12]; Postemergence, 125 g ai/ha): 10 | Plant response rating, Kochia ([13]; 500 g ai/ha, postemergence): 0 | Wheat plant response rating ([14]; 500 g ai/ha): 0 | Plant response rating, Wheat [14, 29]: 0 | Plant response rating, Wheat ([15]; 500 g ai/ha, postemergence): 10 | Plant response rating, Wheat ([15]; Postemergence, 125 g ai/ha): 10 | Plant response rating, Foxtail, Green ([16]; 500 g ai/ha, postemergence): 10 | Plant response rating, Foxtail, Green ([16]; Postemergence, 125 g ai/ha): 10 | Plant response rating, Sedge, Umbrella (Flood) [17]: 0 | Ragweed plant response rating ([18]; 500 g ai/ha): 0 | Plant response rating, Ragweed [18, 29]: 0 | Blackgrass plant response rating ([19]; 500 g ai/ha): 0 | Plant response rating, Blackgrass [19, 29]: 0 | Plant response rating, Horseweed ([20]; 500 g ai/ha, postemergence): 0 | Plant response rating, Horseweed ([20]; Postemergence, 125 g ai/ha): 0 | Plant response rating, Ducksalad (Flood) [21]: 0 | Plant response rating, Rice (Flood) [22]: 0 | Kochia plant response rating ([23]; 500 g ai/ha): 0 | Plant response rating, Kochia [23, 29]: 0 | Plant response rating, Oat, Wild ([24]; 500 g ai/ha, postemergence): 0 | Plant response rating, Oat, Wild ([24]; Postemergence, 125 g ai/ha): 0 | Plant response rating, Blackgrass ([25]; 500 g ai/ha, postemergence): 0 | Plant response rating, Blackgrass ([25]; Postemergence, 125 g ai/ha): 0 | Plant response rating, Ragweed ([26]; 500 g ai/ha, postemergence): 0 | Soybean plant response rating ([27]; 500 g ai/ha): 0 | Plant response rating, Soybean [27, 29]: 20 | Corn plant response rating ([28]; 500 g ai/ha): 0 | Plant response rating, Corn [28, 29]: 0
